28 molecules from US9273058B2 (BRISTOL-MYERS SQUIBB COMPANY, priority 2013, dated 2016) can be followed below.

One assay concerns the target CK1ε (Homo sapiens, UniProt P49674). Briefly: CK1ε kinase assay (Caliper LabChip electrophoretic separation of fluoresceinated peptide substrate and product). To be noted: 200 pM CK1ε, 50 μM ATP, 1.5 μM peptide, 22 hours at room temperature. In kind it is biochemical. The essentials:
(§1)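 IC50 values were obtained by non-linear regression from eleven-concentration titrations. The kinase reactions were incubated for 22 hours at room temperature before termination with 35 mM EDTA.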

The target of the next assay is CK1δ (Homo sapiens, UniProt P48730). Briefly: CK1δ kinase assay (Caliper LabChip electrophoretic separation of fluoresceinated peptide substrate and product). In kind it is biochemical. To be noted: 200 pM CK1δ, 50 μM ATP, 1.5 μM peptide, 22 hours at room temperature. The method, boiled down:
as §1

Molecules are shown by their SMILES. Where two headings read alike, the source gives them in different places.

Chain of CK1ε (P49674 whole entry): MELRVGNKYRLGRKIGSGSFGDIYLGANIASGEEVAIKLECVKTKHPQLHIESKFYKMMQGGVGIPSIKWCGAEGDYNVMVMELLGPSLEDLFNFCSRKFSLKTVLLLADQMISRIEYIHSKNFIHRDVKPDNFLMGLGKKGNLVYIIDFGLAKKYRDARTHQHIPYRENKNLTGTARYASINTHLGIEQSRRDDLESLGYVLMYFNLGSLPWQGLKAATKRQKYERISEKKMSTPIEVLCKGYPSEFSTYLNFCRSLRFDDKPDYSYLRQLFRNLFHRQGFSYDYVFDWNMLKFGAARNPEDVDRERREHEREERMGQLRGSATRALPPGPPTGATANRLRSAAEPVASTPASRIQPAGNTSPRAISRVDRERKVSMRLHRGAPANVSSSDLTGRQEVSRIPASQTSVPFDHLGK
Chain of CK1δ (P48730 whole entry): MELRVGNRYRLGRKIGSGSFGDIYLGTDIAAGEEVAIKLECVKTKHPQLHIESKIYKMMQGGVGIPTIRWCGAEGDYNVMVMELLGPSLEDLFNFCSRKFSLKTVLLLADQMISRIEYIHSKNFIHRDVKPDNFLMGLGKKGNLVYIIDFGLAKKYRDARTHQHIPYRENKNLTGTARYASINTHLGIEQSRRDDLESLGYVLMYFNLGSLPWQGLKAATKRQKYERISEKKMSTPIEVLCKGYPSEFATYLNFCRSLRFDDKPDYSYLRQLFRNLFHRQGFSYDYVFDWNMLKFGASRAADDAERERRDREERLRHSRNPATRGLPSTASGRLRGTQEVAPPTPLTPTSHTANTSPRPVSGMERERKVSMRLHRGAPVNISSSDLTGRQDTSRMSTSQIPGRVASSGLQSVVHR

With `CC(C)(C)NC(=O)N1CCn2nc(-c3ccsc3)c(C(N)=O)c2C1` [Compound 121, N^5-(tert-Butyl)-2-(thiophen-3-yl)-6,7-dihydropyrazolo[1,5-a]pyrazine-3,5(4H)-dicarboxamide], the IC50 on CK1ε (read-out: CK1ε IC50 range) was 100 to 2000 nM; at CK1δ (read-out: CK1δ IC50 range), 10 to 100 nM.
For `CC(C)(C)NC(=O)N1CCn2nc(-c3cccc(C(=O)O)c3)c(C(N)=O)c2C1` [Compound 122, 3-(5-(tert-Butylcarbamoyl)-3-carbamoyl-4,5,6,7-tetrahydropyrazolo[1,5-a]pyrazin-2-yl)benzoic acid], the IC50 at CK1ε (read-out: CK1ε IC50 range) and on CK1δ (read-out: CK1δ IC50 range) was 100 to 2000 nM in each case.
For the molecule `CC(C)(C)NC(=O)N1CCn2nc(-c3cccc(C(N)=O)c3)c(C(N)=O)c2C1` [Compound 123, N^5-(tert-Butyl)-2-(3-carbamoylphenyl)-6,7-dihydropyrazolo[1,5-a] pyrazine-3,5(4H)-dicarboxamide], the IC50 fell in the range of 100 to 2000 nM on CK1ε (read-out: CK1ε IC50 range) and 10 to 100 nM on CK1δ (read-out: CK1δ IC50 range).
For the molecule `CC(C)(C)NC(=O)N1CCn2nc(-c3ccc(F)cc3F)c(C(N)=O)c2C1` [Compound 124, N^5-(tert-Butyl)-2-(2,4-difluorophenyl)-6,7-dihydropyrazolo[1,5-a] pyrazine-3,5(4H)-dicarboxamide], the IC50 on CK1ε (read-out: CK1ε) came to 118 nM; at CK1δ (read-out: CK1δ) it was 172 nM.
As for `CC(C)(C)NC(=O)N1CCn2nc(-c3ccc(F)nc3F)c(C(N)=O)c2C1` [Compound 125, N^5-(tert-Butyl)-2-(2,6-difluoropyridin-3-yl)-6,7-dihydropyrazolo[1,5-a] pyrazine-3,5(4H)-dicarboxamide], the IC50 at CK1ε (read-out: CK1ε IC50 range) and at CK1δ (read-out: CK1δ IC50 range) was 100 to 2000 nM throughout.
As to `CC(C)(C)NC(=O)N1CCn2nc(-c3ccncc3)c(C(N)=O)c2C1` [Compound 126, N^5-(tert-Butyl)-2-(pyridin-4-yl)-6,7-dihydropyrazolo[1,5-a]pyrazine-3,5(4H)-dicarboxamide], the IC50 at CK1ε (read-out: CK1ε) is 844 nM; on CK1ε (read-out: CK1ε IC50 range), 100 to 2000 nM; at CK1δ (read-out: CK1δ), 442 nM; at CK1δ (read-out: CK1δ IC50 range), 100 to 2000 nM.
On to `CC(C)(C)NC(=O)N1CCn2nc(-c3ccc(C#N)cc3)c(C(N)=O)c2C1` [Compound 127, N^5-(tert-Butyl)-2-(4-cyanophenyl)-6,7-dihydropyrazolo[1,5-a] pyrazine-3,5(4H)-dicarboxamide], for which the IC50 at CK1ε (read-out: CK1ε) was 444 nM; on CK1ε (read-out: CK1ε IC50 range), 100 to 2000 nM; at CK1δ (read-out: CK1δ), 357 nM; at CK1δ (read-out: CK1δ IC50 range), 100 to 2000 nM.
For the molecule `CC(C)(C)NC(=O)N1CCn2nc(-c3cccc(Cl)c3Cl)c(C(N)=O)c2C1` [Compound 130, N^5-(tert-Butyl)-2-(2,3-dichlorophenyl)-6,7-dihydropyrazolo[1,5-a] pyrazine-3,5(4H)-dicarboxamide], the IC50 is 89.5 nM on CK1ε (read-out: CK1ε), 10 to 100 nM at CK1ε (read-out: CK1ε IC50 range), 96.4 nM on CK1δ (read-out: CK1δ) and 10 to 100 nM on CK1δ (read-out: CK1δ IC50 range).
Take `CC(C)(C)NC(=O)N1CCn2nc(-c3ccccc3C(N)=O)c(C(N)=O)c2C1` [Compound 131, N^5-(tert-Butyl)-2-(2-carbamoylphenyl)-6,7-dihydropyrazolo[1,5-a] pyrazine-3,5(4H)-dicarboxamide]: the IC50 on CK1ε (read-out: CK1ε IC50 range) and on CK1δ (read-out: CK1δ IC50 range) was 100 to 2000 nM throughout.
Consider `CC(C)(C)NC(=O)N1CCn2nc(-c3cccc4ncccc34)c(C(N)=O)c2C1` [Compound 132, N^5-(tert-Butyl)-2-(quinolin-5-yl)-6,7-dihydropyrazolo[1,5-a]pyrazine-3,5(4H)-dicarboxamide], for which the IC50 on CK1ε (read-out: CK1ε IC50 range) and at CK1δ (read-out: CK1δ IC50 range) was 100 to 2000 nM in each case.
For the molecule `CC(C)(C)NC(=O)N1CCn2nc(-c3cncc4ccccc34)c(C(N)=O)c2C1` [Compound 133, N^5-(tert-Butyl)-2-(isoquinolin-4-yl)-6,7-dihydropyrazolo[1,5-a] pyrazine-3,5(4H)-dicarboxamide], the IC50 on CK1ε (read-out: CK1ε IC50 range) and on CK1δ (read-out: CK1δ IC50 range) was 100 to 2000 nM in each case.
In the case of `CC(C)(C)NC(=O)N1CCn2nc(-c3cccc4cnccc34)c(C(N)=O)c2C1` [Compound 134, N^5-(tert-Butyl)-2-(isoquinolin-5-yl)-6,7-dihydropyrazolo[1,5-a] pyrazine-3,5(4H)-dicarboxamide], the IC50 on CK1ε (read-out: CK1ε IC50 range) and at CK1δ (read-out: CK1δ IC50 range) was 100 to 2000 nM each time.
`CC(C)(C)NC(=O)N1CCn2nc(-c3cccc(CNS(C)(=O)=O)c3)c(C(N)=O)c2C1` [Compound 135, N^5-(tert-Butyl)-2-(3-(methylsulfonamidomethyl)phenyl)-6,7-dihydropyrazolo [1,5-a]pyrazine-3,5(4H)-dicarboxamide]: the IC50 at CK1ε (read-out: CK1ε IC50 range) and on CK1δ (read-out: CK1δ IC50 range) was 100 to 2000 nM in each case.
Take `CC(C)(C)NC(=O)N1CCn2nc(-c3cccc(S(N)(=O)=O)c3)c(C(N)=O)c2C1` [Compound 136, N^5-(tert-Butyl)-2-(3-sulfamoylphenyl)-6,7-dihydropyrazolo[1,5-a] pyrazine-3,5(4H)-dicarboxamide]: the IC50 at CK1ε (read-out: CK1ε IC50 range) and at CK1δ (read-out: CK1δ IC50 range) was 100 to 2000 nM throughout.
As to `CC(C)(C)NC(=O)N1CCn2nc(-c3cccc(OC(F)(F)F)c3)c(C(N)=O)c2C1` [Compound 138, N^5-(tert-Butyl)-2-(3-(trifluoromethoxy)phenyl)-6,7-dihydropyrazolo[1,5-a] pyrazine-3,5(4H)-dicarboxamide], the IC50 on CK1ε (read-out: CK1ε IC50 range) and at CK1δ (read-out: CK1δ IC50 range) was 100 to 2000 nM in each case.
For the molecule `CC(C)(C)NC(=O)N1CCn2nc(-c3ccc(F)c(C(F)(F)F)c3)c(C(N)=O)c2C1` [Compound 139, N^5-(tert-Butyl)-2-(4-fluoro-3-(trifluoromethyl)phenyl)-6,7-dihydropyrazolo[1,5-a] pyrazine-3,5(4H)-dicarboxamide], the IC50 at CK1ε (read-out: CK1ε IC50 range) lay within 100 to 2000 nM; at CK1δ (read-out: CK1δ IC50 range), 10 to 100 nM.
Turning to `CC(C)(C)NC(=O)N1CCn2nc(-c3cc4ccccc4nc3Cl)c(C(N)=O)c2C1` [Compound 140, N^5-(tert-Butyl)-2-(2-chloroquinolin-3-yl)-6,7-dihydropyrazolo[1,5-a] pyrazine-3,5(4H)-dicarboxamide], the IC50 on CK1ε (read-out: CK1ε IC50 range) and at CK1δ (read-out: CK1δ IC50 range) was 100 to 2000 nM in each case.
As to `CC(C)(C)NC(=O)N1CCn2nc(-c3cccc(-c4ccccc4)c3)c(C(N)=O)c2C1` [Compound 141, 2-([1,1′-Biphenyl]-3-yl)-N^5-(tert-butyl)-6,7-dihydropyrazolo[1,5-a] pyrazine-3,5(4H)-dicarboxamide], the IC50 on CK1ε (read-out: CK1ε IC50 range) and at CK1δ (read-out: CK1δ IC50 range) was 100 to 2000 nM throughout.
For `CC(C)(C)NC(=O)N1CCn2nc(-c3cncnc3)c(C(N)=O)c2C1` [Compound 142, N^5-(tert-Butyl)-2-(pyrimidin-5-yl)-6,7-dihydropyrazolo [1,5-a]pyrazine-3,5(4H)-dicarboxamide], the IC50 was 100 to 2000 nM at CK1ε (read-out: CK1ε IC50 range), 894 nM at CK1δ (read-out: CK1δ) and 100 to 2000 nM on CK1δ (read-out: CK1δ IC50 range).
Regarding `CC(C)(C)NC(=O)N1CCn2nc(-c3ccc4cc[nH]c4c3)c(C(N)=O)c2C1` [Compound 143], the IC50 was 33.3 nM at CK1ε (read-out: CK1ε), 10 to 100 nM on CK1ε (read-out: CK1ε IC50 range), 4.2 nM on CK1δ (read-out: CK1δ) and 0.01 to 10 nM at CK1δ (read-out: CK1δ IC50 range).
As for `CC(C)(C)NC(=O)N1CCn2nc(-c3ccc(S(C)(=O)=O)cc3)c(C(N)=O)c2C1` [Compound 144, N^5-(tert-Butyl)-2-(4-(methylsulfonyl)phenyl)-6,7-dihydropyrazolo[1,5-a] pyrazine-3,5(4H)-dicarboxamide], the IC50 at CK1ε (read-out: CK1ε IC50 range) and on CK1δ (read-out: CK1δ IC50 range) was 100 to 2000 nM throughout.
Regarding `CC(C)(C)NC(=O)N1CCn2nc(-c3cn[nH]c3)c(C(N)=O)c2C1` [Compound 145, N^5-(tert-Butyl)-2-(1H-pyrazol-4-yl)-6,7-dihydropyrazolo[1,5-a] pyrazine-3,5(4H)-dicarboxamide], the IC50 at CK1ε (read-out: CK1ε) is 1820 nM; at CK1ε (read-out: CK1ε IC50 range) it was 100 to 2000 nM; on CK1δ (read-out: CK1δ), 1050 nM; at CK1δ (read-out: CK1δ IC50 range), 100 to 2000 nM.
As to `CC(C)(C)NC(=O)N1CCn2nc(-c3cnc(N4CCCC4)nc3)c(C(N)=O)c2C1` [Compound 146, N^5-(tert-Butyl)-2-(2-(pyrrolidin-1-yl)pyrimidin-5-yl)-6,7-dihydropyrazolo[1,5-a]pyrazine-3,5(4H)-dicarboxamide], the IC50 on CK1ε (read-out: CK1ε IC50 range) and on CK1δ (read-out: CK1δ IC50 range) was 100 to 2000 nM throughout.
Turning to `CC(C)(C)NC(=O)N1CCn2nc(-c3cnc(N4CCOCC4)nc3)c(C(N)=O)c2C1` [Compound 147, N^5-(tert-Butyl)-2-(2-morpholinopyrimidin-5-yl)-6,7-dihydropyrazolo[1,5-a] pyrazine-3,5(4H)-dicarboxamide], the IC50 on CK1ε (read-out: CK1ε IC50 range) and at CK1δ (read-out: CK1δ IC50 range) was 100 to 2000 nM each time.
As to `CC(C)(C)NC(=O)N1CCn2nc(-c3ccc4scnc4c3)c(C(N)=O)c2C1` [Compound 149, 2-(Benzo[d]thiazol-5-yl)-N^5-(tert-butyl)-6,7-dihydropyrazolo[1,5-a] pyrazine-3,5(4H)-dicarboxamide], the IC50 on CK1ε (read-out: CK1ε IC50 range) is 100 to 2000 nM; on CK1δ (read-out: CK1δ IC50 range) it was 10 to 100 nM.
On to `CC(C)(C)NC(=O)N1CCn2nc(-c3cc(F)ccc3F)c(C(N)=O)c2C1` [Compound 151, N^5-(tert-Butyl)-2-(2,5-difluorophenyl)-6,7-dihydropyrazolo[1,5-a] pyrazine-3,5(4H)-dicarboxamide], for which the IC50 on CK1ε (read-out: CK1ε) is 179 nM; at CK1ε (read-out: CK1ε IC50 range) it was 100 to 2000 nM; at CK1δ (read-out: CK1δ), 122 nM; at CK1δ (read-out: CK1δ IC50 range), 100 to 2000 nM.
Regarding `Cn1cc(-c2nn3c(c2C(N)=O)CN(C(=O)NC(C)(C)C)CC3)cn1` [Compound 153, N^5-(tert-Butyl)-2-(1-methyl-1H-pyrazol-4-yl)-6,7-dihydropyrazolo[1,5-a] pyrazine-3,5(4H)-dicarboxamide], the IC50 on CK1ε (read-out: CK1ε IC50 range) and at CK1δ (read-out: CK1δ IC50 range) was 100 to 2000 nM in each case.
As to `CC(C)(C)NC(=O)N1CCn2nc(-c3cc(Cl)cc(C#N)c3)c(C(N)=O)c2C1` [Compound 154, N^5-(tert-Butyl)-2-(3-chloro-5-cyanophenyl)-6,7-dihydropyrazolo[1,5-a] pyrazine-3,5(4H)-dicarboxamide], the IC50 on CK1ε (read-out: CK1ε) was 27.7 nM; at CK1ε (read-out: CK1ε IC50 range) it was 10 to 100 nM; on CK1δ (read-out: CK1δ), 24.3 nM; at CK1δ (read-out: CK1δ IC50 range) it was 10 to 100 nM.
